Experimental data from patent US20240016860A1, “BACILLUS COAGULANS FOR IMPROVING CONSTIPATION AND APPLICATION THEREOF” (Thankcome Biological Science and Technology (Suzhou) Co., …, priority 2022, published 2024).

Assays:
Type in all cases: in vivo, Kunming mice
somatostatin (SS) = assay: Serum gastrointestinal hormone ELISA: SS; details: Bis group: bisacodyl 100 mg/kg per day
Procedure: (§1) After a week of adaptive culture, 40 mice are randomly divided into 5 groups, with 8 mice in each group, namely the group of normal control (NC), group of model (GM), BC69 low-dose group (BC-L), BC69 high-dose group (BC-H) and bisacodyl drug treatment group (Bis). During the experiment, saline gavage of 0.25 mL is administered daily to NC and GM mice; from day 1 to day 4, all mice except NC mice are additionally gavaged with loperamide hydrochloride suspension (1 mg/mL) 0.25 mL twice daily (at 9:00 a.m. and 2:00 p.m. respectively) to induce a functional constipation model of mice; after gavage on day 4, all mice are fasted from food but not water for 16 h; from day 5 to day 11, […] are gavaged with Bacillus coagulans BC suspension 0.25 mL every day, where the concentrations are 1.0×10^8 colony-forming units per milliliter (CFU/mL) and 4.0×10^9 CFU/mL respectively; mice of group Bis are gavaged with bisacodyl aqueous solution at 100 milligrams per kilogram (mg/kg) per day; after the completion of gavage on day 11, all groups of mice are fasted from food but not water for 16 h. […]
(§2) The contents of endothelin (ET), gastrin (Gas), motilin (MTL), substance P (SP), somatostatin (SS) and vasoactive intestinal peptide (VIP) in serum are determined according to the instructions of the enzyme-linked immuno sorbent assay (ELISA) kit.

COX-2 mRNA = assay: RT-qPCR mRNA expression in small intestine: COX-2; details: 2^−ΔΔCt, actin reference, Bis group: bisacodyl 100 mg/kg per day
Procedure: (§3) After a week of adaptive culture, 40 mice are randomly divided into 5 groups, with 8 mice in each group, namely the group of normal control (NC), group of model (GM), BC69 low-dose group (BC-L), BC69 high-dose group (BC-H) and bisacodyl drug treatment group (Bis). […]
(§4) Messenger ribonucleic acid (mRNA) expressions of COX-2, c-kit, NFκB, iNOS, eNOS, nNOS and SCF are detected by RT-qPCR, and total RNA is extracted and complementary deoxyribonucleic acid (cDNA) reverse transcription is carried out according to the instructions of RNA extraction kit and cDNA reverse transcription kit; then a microspectrophotometer is used to identify the purity of the RNA at 260/280 nanometers (nm). Actin (actin) is used as a standardized internal reference for RT-qPCR analysis, and final RT-qPCR product expression is determined using the 2^−ΔΔCt method.

motilin (MTL) = assay: Serum gastrointestinal hormone ELISA: MTL; details: Bis group: bisacodyl 100 mg/kg per day
Procedure: as §1, §2

SCF mRNA = assay: RT-qPCR mRNA expression in small intestine: SCF; details: 2^−ΔΔCt, actin reference, Bis group: bisacodyl 100 mg/kg per day
Procedure: as §3, §4

gastrin (Gas) = assay: Serum gastrointestinal hormone ELISA: Gas; details: Bis group: bisacodyl 100 mg/kg per day
Procedure: as §1, §2

endothelin-1 (ET-1) = assay: Serum gastrointestinal hormone ELISA: ET-1; details: Bis group: bisacodyl 100 mg/kg per day
Procedure: as §1, §2

eNOS mRNA = assay: RT-qPCR mRNA expression in small intestine: eNOS; details: 2^−ΔΔCt, actin reference, Bis group: bisacodyl 100 mg/kg per day
Procedure: as §3, §4

c-kit mRNA = assay: RT-qPCR mRNA expression in small intestine: c-kit; details: 2^−ΔΔCt, actin reference, Bis group: bisacodyl 100 mg/kg per day
Procedure: as §3, §4

nNOS mRNA = assay: RT-qPCR mRNA expression in small intestine: nNOS; details: 2^−ΔΔCt, actin reference, Bis group: bisacodyl 100 mg/kg per day
Procedure: as §3, §4

substance P (SP) = assay: Serum gastrointestinal hormone ELISA: SP; details: Bis group: bisacodyl 100 mg/kg per day
Procedure: as §1, §2

[1] = system: vasoactive intestinal peptide (VIP); assay: Serum gastrointestinal hormone ELISA: VIP; details: Bis group: bisacodyl 100 mg/kg per day
Procedure: as §1, §2

NFκB mRNA = assay: RT-qPCR mRNA expression in small intestine: NFκB; details: 2^−ΔΔCt, actin reference, Bis group: bisacodyl 100 mg/kg per day
Procedure: as §3, §4

iNOS mRNA = assay: RT-qPCR mRNA expression in small intestine: iNOS; details: 2^−ΔΔCt, actin reference, Bis group: bisacodyl 100 mg/kg per day
Procedure: as §3, §4

SMILES: CC(=O)Oc1ccc(C(c2ccc(OC(C)=O)cc2)c2ccccn2)cc1 [Bis, bisacodyl]
- SS (somatostatin (SS)): 28.09 ± 1.89 pg/mL
- mRNA expression levels COX-2 (COX-2 mRNA): 0.43 ± 0.05
- MTL (motilin (MTL)): 57.89 ± 2.65 pg/mL
- mRNA expression levels SCF (SCF mRNA): 3.66 ± 0.62
- Gas (gastrin (Gas)): 10.09 ± 0.69 pg/mL
- ET-1 (endothelin-1 (ET-1)): 21.44 ± 1.28 pg/mL
- mRNA expression levels eNos (eNOS mRNA): 0.03 ± 0.00
- mRNA expression levels c-kit (c-kit mRNA): 0.08 ± 0.01
- mRNA expression levels nNos (nNOS mRNA): 0.04 ± 0.00
- SP (substance P (SP)): 51.60 ± 3.48 pg/mL
- VIP [1]: 36.13 ± 2.37 pg/mL
- mRNA expression levels NFκB (NFκB mRNA): 2.21 ± 0.84
- mRNA expression levels iNos (iNOS mRNA): 0.04 ± 0.00
